We go through 3 compounds from patent US20180042919A1, “PARP Inhibitors for the Treatment of Major Depressive Disorder and Related Conditions” (East Tennessee State University Research Foundation, priority 2016, published 2018).

Common to all, as to format: in vivo, rat
The test system of assay [1] is Male Sprague-Dawley rats. Briefly: Porsolt swim test (forced swim stress test). From the text:
Laboratory Animals: The use of animals for this study was approved by the University Committee on Animal Care at East Tennessee State University. All rats were ordered from Envigo, Inc. (Indianapolis, Ind., USA). Male Sprague-Dawley rats (225-250 g upon arrival) were used as subjects in the Porsolt swim test and were socially housed in groups of 2-3 per cage. Rats used as ‘intruders’ in the social defeat paradigm were individually housed and provided enrichment per the NIH Guidelines for the Care and Use of Animals. Intruder rats were male Sprague-Dawley rats (225-250 g). In addition, a total of 14 female Sprague-Dawley rats weighing 175-199 g upon arrival were obtained for the social defeat paradigm and these rats were socially housed for 6 days in the animal colony prior to fallopian tube ligature, performed as previously described. (Szebeni et al., 2016). Sixteen male Long-Evans hooded rats weighing 250-275 g upon arrival were used as ‘residents’ in the social defeat paradigm. A climate-controlled vivarium was utilized and animals were kept on a 12 h on/12 off light/dark cycle. Porsolt swim test: Different groups of animals were tested in the Porsolt swim test. Rats were treated using the same drug treatment regimen as with the SDS/CUS paradigm, except as noted in the combined drug treatments as noted in the Results. On the eighth day of drug treatment, all animals began behavioral testing in the Porsolt swim test, also known as the forced swim stress test. All animals were tested in black cylinders measuring 36 cm in diameter, and these cylinders were filled with water of 23-25° C. following procedures as reviewed previously (Bogdanova et al., 2013), consistent with the original procedure of Porsolt and coworkers (Porsolt et al., 1978). All animals were given a pre-swim exposure test on the first day of testing, 24 h before the swim test session the following day. On the first day of testing, animals were exposed to the water for 15 min, and on the second day were given a 5 min trial. The two dependent measures used for forced swim stress was the latency to first immobility episode (immobility lasting >5 s) and the total immobility time over the 5 min period, both recorded on the second day of testing. All movements of the animal were recorded by behavioral scanning software (ANY-maze, Stoelting Co., Wood Dale, Ill., USA). Drug administration: All drugs used in the study, 3-aminobenzamide (Product no. A0788; 3-AB), 5-AIQ hydrochloride (Product no. […] F132), were obtained from Sigma-Aldrich, Inc. (St. Louis, Mo., USA). Statistical analysis: A Grubb's test was used to remove statistical outliers from each dataset prior to analyses. Statistical analyses were otherwise performed as indicated using IBM SPSS Statistics (version 23.0) and data were graphed using GraphPad Prism (version 5.0b, GraphPad Software, La Jolla, Calif.). An independent sample t-test was used to analyze data generated when only two groups were analyzed. An analysis of variance (ANOVA) was used to test multiple group comparisons. For post hoc statistical comparisons, a Bonferroni-correction was applied (as noted) to limit Type I error in multiple post-hoc comparisons. For the combined drug treatment experiment, ANOVA was followed by a Dunnett's Multiple Comparison test that focused comparisons of drug treatment groups to the vehicle control group. All data are expressed as mean±standard error of the mean.

The test system of assay [2] is Male Sprague-Dawley rats. Briefly: Sucrose preference in rats exposed to repeated social defeat stress plus chronic unpredictable stress. The following applies: 2 h prior to social defeat, vs stressed rats treated with vehicle. The procedure: (§1) Social Defeat Stress (SDS): SDS was induced as described previously (Covington and Miczek, 2001; Szebeni et al., 2016). Briefly, Long-Evans hooded rats (‘residents’) were each mated with a female (ligated) rat for a 7-day period. On the eighth day and after removal of the female, an ‘intruder’ rat was placed into the cage for a 5 min period and dominance was established by the resident. Defeat was produced between 0900 and 1000 h daily for 10 consecutive days. Control rats not exposed to defeat were handled each day during this same time period.
Chronic unpredictable stress (CUS): CUS was performed after SDS on the same day, but at random times either during the day or evening as previously described (Bondi et al., 2008; Szebeni et al., 2016). Different stressors were randomly arranged and occurred at random times during the light or dark cycle of each day for 10 consecutive days. […]
Sucrose Preference: Sucrose preference was performed during the final three days of induction of social defeat stress (days 8-10), using a procedure based on that of D'Aquila et al. (1997). […] Amounts of sucrose consumed were calculated as percentages of the total amount of fluid consumed during the 2 h period on each of the 3 days of testing. […] The preference of sucrose over water was used as a measure of animal's sensitivity to reward and expressed as a percent. […]

Assay [3] concerns Male Sprague-Dawley rats. Briefly: Social interaction test in rats exposed to repeated social defeat stress plus chronic unpredictable stress. The procedure: as §1
Chronic unpredictable stress (CUS): CUS was performed after SDS on the same day, but at random times either during the day or evening as previously described (Bondi et al., 2008; Szebeni et al., 2016). Different stressors were randomly arranged and occurred at random times during the light or dark cycle of each day for 10 consecutive days. All rats were exposed twice to each of 5 different stressors, which included a 30-min restraint, a 1-h shaking/crowding, 10-min cold water (18° C.) swim, a 15-min warm water swim (25° C.) and a 24-h tipped cage. […]
Social interaction test: The social interaction test was performed 24 h after the last social defeat stress on day 11 of behavioral testing. […] The amount of time spent in a defined interaction zone close to the metal divider was measured using ANYmaze video tracking (Stoelting Co., Wood Dale Ill., USA). […]

[4] abbreviates: third experiment, 2.5 mg/kg i.p. 3 times over 24 h, alone, Dunnett's test vs vehicle.
The mark [5] stands for this setting: third experiment, 4 mg/kg i.p. 3 times over 24 h, alone, Dunnett's test vs vehicle.

Structures are written as SMILES.

For `CNCCC(Oc1ccc(C(F)(F)F)cc1)c1ccccc1` (centres unmarked) [fluoxetine], the immobility time result in the assay on Male Sprague-Dawley rats [1] (second experiment, 10 mg/kg i.p. injections 23.5, 5 and 1 h before testing, vs vehicle group) is recorded as “significantly less time immobile”; with Male Sprague-Dawley rats [1] (setting [4]), “did not significantly affect”. For the same compound, the latency to immobility result is on record as “significantly greater” with Male Sprague-Dawley rats [1] (second experiment, 10 mg/kg i.p. injections 23.5, 5 and 1 h before testing, vs vehicle-treated control rats); “did not significantly affect” in the assay on Male Sprague-Dawley rats [1] (setting [4]). For the same compound, in the assay with Male Sprague-Dawley rats [2] (10 mg/kg i.p. daily for 10 days, p=0.005), the sucrose preference entry is reported as “significantly higher”. In addition, the “time spent in the interaction zone” value in the assay on Male Sprague-Dawley rats [3] (10 mg/kg i.p. daily for 10 days, difference vs vehicle-treated rats exposed to stress, appeared greater, p=0.073) is “did not reach statistical significance”.

For the compound `Nc1cccc2c(=O)[nH]ccc12` [5-AIQ, 5-aminoisoquinolinone], in the assay on Male Sprague-Dawley rats [1] (second experiment, 0.3 mg/kg i.p. once daily for 10 days, vs vehicle control group), the latency to immobility result is listed as “did not significantly differ”. Further, the immobility time result with Male Sprague-Dawley rats [1] (second experiment, 0.3 mg/kg i.p. once daily for 10 days, vs vehicle group) was “significantly less time immobile”.

As for `NC(=O)c1cccc(N)c1` [3-AB, 3-aminobenzamide], in the assay on Male Sprague-Dawley rats [1] (preliminary experiment, 40 mg/kg i.p. daily for 10 days, 2 h after injection, vs saline-treated controls, t=2.36, p<0.05), the time spent immobile result was “significantly decreased”. The latency to immobility result with Male Sprague-Dawley rats [1] (preliminary experiment, 40 mg/kg i.p. daily for 10 days, 2 h after injection, vs saline-treated controls, t=5.56, p<0.001) is recorded as “significant increase”; in the assay on Male Sprague-Dawley rats [1] (second experiment, 0.4 mg/kg i.p. once daily for 10 days, vs vehicle control group), “did not significantly differ”; in the assay with Male Sprague-Dawley rats [1] (second experiment, 4 mg/kg i.p. once daily for 10 days, vs vehicle control group) it was “did not significantly differ”; with Male Sprague-Dawley rats [1] (second experiment, 40 mg/kg i.p. injections 23.5, 5 and 1 h before testing (3-AB×3), vs vehicle control group), “did not significantly differ”; in the assay with Male Sprague-Dawley rats [1] (second experiment, 40 mg/kg i.p. once daily for 10 days, vs vehicle-treated control rats) it was “significantly greater”; with Male Sprague-Dawley rats [1] (setting [5]) it was “did not significantly affect”. In addition, the immobility time result with Male Sprague-Dawley rats [1] (second experiment, 40 mg/kg i.p. injections 23.5, 5 and 1 h before testing (3-AB×3), vs vehicle group) was “significantly less time immobile”; with Male Sprague-Dawley rats [1] (second experiment, 40 mg/kg i.p. once daily for 10 days, vs vehicle group) it was “significantly less time immobile”; with Male Sprague-Dawley rats [1] (setting [5]) it was “did not significantly affect”. The sucrose preference result in the assay on Male Sprague-Dawley rats [2] (40 mg/kg i.p. daily for 10 days, p=0.024) is “significantly higher”. Also, the “time spent in the interaction zone” value with Male Sprague-Dawley rats [3] (40 mg/kg i.p. daily for 10 days, vs vehicle-treated rats exposed to stressors, p=0.014) was “significantly greater”.
